{"source": "patent US11919901B2", "about": "(Syndax Pharmaceuticals, Inc., priority 2021, dated 2024)", "target": "Menin-MLL (Homo sapiens (Human), UniProt O00255)", "sequence (O00255 whole entry)": "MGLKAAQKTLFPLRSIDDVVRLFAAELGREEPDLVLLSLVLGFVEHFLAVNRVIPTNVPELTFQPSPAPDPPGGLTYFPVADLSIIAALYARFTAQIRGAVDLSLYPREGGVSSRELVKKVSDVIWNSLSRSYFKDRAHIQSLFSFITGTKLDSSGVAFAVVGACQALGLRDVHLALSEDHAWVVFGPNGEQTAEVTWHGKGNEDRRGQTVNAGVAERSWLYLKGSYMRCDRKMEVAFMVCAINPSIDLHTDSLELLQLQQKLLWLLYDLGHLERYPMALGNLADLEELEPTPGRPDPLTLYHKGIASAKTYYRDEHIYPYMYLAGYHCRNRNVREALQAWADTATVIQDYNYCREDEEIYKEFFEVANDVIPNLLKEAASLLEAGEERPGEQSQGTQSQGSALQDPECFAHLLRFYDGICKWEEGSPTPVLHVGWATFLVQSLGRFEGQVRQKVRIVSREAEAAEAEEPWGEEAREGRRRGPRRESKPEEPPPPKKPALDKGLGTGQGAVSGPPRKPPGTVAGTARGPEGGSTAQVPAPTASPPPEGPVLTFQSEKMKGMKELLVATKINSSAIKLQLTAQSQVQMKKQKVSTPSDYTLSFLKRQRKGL", "assay": "Determination of binding constants (Ki) to Menin-MLL (HTRF)", "conditions": "HTRF, 0.25 nM H-FL-Menin, 3.2 nM FITC-MLL-4-43, 24 hr incubation; for Ki: read-out: Menin-MLL Ki HTRF Assay: Ki", "data": [{"smiles": "CCN(C(=O)c1cc(F)ccc1Oc1cncnc1N1CC2(CCN(C[C@@H]3CC[C@@H](NS(=O)(=O)N4CC(F)(F)C4)CO3)CC2)C1)C(C)C", "note": "[Compound 70, 2-((4-(7-(((2S,5R)-5-((3,3-Difluoroazetidine)-1-sulfonamido)tetrahydro-2H-pyran-2-yl)methyl)-2,7-diazaspiro[3.5]nonan-2-yl)pyrimidin-5-yl)oxy)-N-ethyl-5-fluoro-N-isopropylbenzamide]", "values": [{"measurement": "EC50", "result": "< 50", "unit": "nM"}, {"measurement": "Ki", "result": "< 1", "unit": "nM"}]}, {"smiles": "CCN(C(=O)c1cc(F)ccc1Oc1cncnc1N1CC2(CCN(C[C@@H]3CC[C@@H](NS(N)(=O)=O)CO3)CC2)C1)C(C)C", "note": "[Compound 73, N-Ethyl-5-fluoro-N-isopropyl-2-((4-(7-(((2S,5R)-5-(sulfamoylamino)tetrahydro-2H-pyran-2-yl)methyl)-2,7-diazaspiro[3.5]nonan-2-yl)pyrimidin-5-yl)oxy)benzamide]", "values": [{"measurement": "Ki", "result": "< 1", "unit": "nM"}]}, {"smiles": "CCN(C(=O)c1cc(F)ccc1Oc1cncnc1N1CC2(CCN(C[C@@H]3CC[C@@H](NS(=O)(=O)c4ccc(=O)n(C)c4)CO3)CC2)C1)C(C)C", "note": "[Compound 74, N-Ethyl-5-fluoro-N-isopropyl-2-((4-(7-(((2S,5R)-5-((1-methyl-6-oxo-1,6-dihydropyridine)-3-sulfonamido)tetrahydro-2H-pyran-2-yl)methyl)-2,7-diazaspiro[3.5]nonan-2-yl)pyrimidin-5-yl)oxy)benzamide]", "values": [{"measurement": "Ki", "result": "< 1", "unit": "nM"}]}, {"smiles": "CC(C)N(C(=O)c1cc(F)ccc1Oc1cncnc1N1CC2(CCN(C[C@@H]3CC[C@@H](NS(=O)(=O)N(C)C)CO3)CC2)C1)C(C)C", "note": "[Compound 77, 2-((4-(7-(((2S,5R)-5-((N,N-Dimethylsulfamoyl)amino)tetrahydro-2H-pyran-2-yl)methyl)-2,7-diazaspiro[3.5]nonan-2-yl)pyrimidin-5-yl)oxy)-5-fluoro-N,N-diisopropylbenzamide]", "values": [{"measurement": "EC50", "result": "< 50", "unit": "nM"}, {"measurement": "Ki", "result": "< 1", "unit": "nM"}]}, {"smiles": "CC(C)N(C(=O)c1cc(F)ccc1Oc1cncnc1N1CC2(CCN(C[C@@H]3CC[C@@H](NS(=O)(=O)C4CCOCC4)CO3)CC2)C1)C(C)C", "note": "[Compound 79]", "values": [{"measurement": "EC50", "result": "< 50", "unit": "nM"}, {"measurement": "Ki", "result": "< 1", "unit": "nM"}]}, {"smiles": "CC(C)N(C(=O)c1cc(F)ccc1Oc1cncnc1N1CC2(CCN(C[C@@H]3CC[C@@H](NS(=O)(=O)c4ccc(=O)n(C)c4)CO3)CC2)C1)C(C)C", "note": "[Compound 92, 5-Fluoro-N,N-diisopropyl-2-((4-(7-(((2S,5R)-5-((1-methyl-6-oxo-1,6-dihydropyridine)-3-sulfonamido)tetrahydro-2H-pyran-2-yl)methyl)-2,7-diazaspiro[3.5]nonan-2-yl)pyrimidin-5-yl)oxy)benzamide]", "values": [{"measurement": "Ki", "result": "< 1", "unit": "nM"}]}, {"smiles": "CC(C)N(CC(F)F)C(=O)c1cc(F)ccc1Oc1cncnc1N1CC2(CCN(C[C@@H]3CC[C@@H](NS(C)(=O)=O)CO3)CC2)C1", "note": "[Compound 96, N-(2,2-Difluoroethyl)-5-fluoro-N-isopropyl-2-((4-(7-(((2S,5R)-5-(methylsulfonamido)tetrahydro-2H-pyran-2-yl)methyl)-2,7-diazaspiro[3.5]nonan-2-yl)pyrimidin-5-yl)oxy)benzamide]", "values": [{"measurement": "EC50", "result": "< 50", "unit": "nM"}, {"measurement": "Ki", "result": "< 1", "unit": "nM"}]}, {"smiles": "CC(C)N(CC(F)F)C(=O)c1cc(F)ccc1Oc1cncnc1N1CC2(CCN(C[C@@H]3CC[C@@H](NS(=O)(=O)C4CCOCC4)CO3)CC2)C1", "note": "[Compound 98, N-(2,2-Difluoroethyl)-5-fluoro-N-isopropyl-2-((4-(7-(((2S,5R)-5-((tetrahydro-2H-pyran)-4-sulfonamido)tetrahydro-2H-pyran-2-yl)methyl)-2,7-diazaspiro[3.5]nonan-2-yl)pyrimidin-5-yl)oxy)benzamide]", "values": [{"measurement": "EC50", "result": "< 50", "unit": "nM"}, {"measurement": "Ki", "result": "< 1", "unit": "nM"}]}, {"smiles": "CCn1cc(S(=O)(=O)N[C@@H]2CC[C@@H](CN3CCC4(CC3)CN(c3ncncc3Oc3ccc(F)cc3C(=O)N(CC(F)F)C(C)C)C4)OC2)cn1", "note": "[Compound 106, N-(2,2-Difluoroethyl)-2-((4-(7-(((2S,5R)-5-((1-ethyl-1H-pyrazole)-4-sulfonamido)tetrahydro-2H-pyran-2-yl)methyl)-2,7-diazaspiro[3.5]nonan-2-yl)pyrimidin-5-yl)oxy)-5-fluoro-N-isopropylbenzamide]", "values": [{"measurement": "Ki", "result": "< 1", "unit": "nM"}]}, {"smiles": "CC(C)N(CC(F)(F)F)C(=O)c1cc(F)ccc1Oc1cncnc1N1CC2(CCN(C[C@@H]3CC[C@@H](NS(=O)(=O)N4CCOCC4)CO3)CC2)C1", "note": "[Compound 108, 5-Fluoro-N-isopropyl-2-((4-(7-(((2S,5R)-5-(morpholine-4-sulfonamido)tetrahydro-2H-pyran-2-yl)methyl)-2,7-diazaspiro[3.5]nonan-2-yl)pyrimidin-5-yl)oxy)-N-(2,2,2-trifluoroethyl)benzamide]", "values": [{"measurement": "EC50", "result": "< 50", "unit": "nM"}, {"measurement": "Ki", "result": "< 1", "unit": "nM"}]}, {"smiles": "CC(C)N(CC(F)(F)F)C(=O)c1cc(F)ccc1Oc1cncnc1N1CC2(CCN(C[C@@H]3CC[C@@H](NS(=O)(=O)C(C)C)CO3)CC2)C1", "note": "[Compound 109, 5-Fluoro-N-isopropyl-2-((4-(7-(((2S,5R)-5-((1-methylethyl)sulfonamido)tetrahydro-2H-pyran-2-yl)methyl)-2,7-diazaspiro[3.5]nonan-2-yl)pyrimidin-5-yl)oxy)-N-(2,2,2-trifluoroethyl)benzamide]", "values": [{"measurement": "EC50", "result": "< 50", "unit": "nM"}, {"measurement": "Ki", "result": "< 1", "unit": "nM"}]}, {"smiles": "CC(C)N(C(=O)c1cc(F)ccc1Oc1cncnc1N1CC2(CCN(C[C@@H]3CC[C@@H](NS(=O)(=O)C(C)C)CO3)CC2)C1)C1CC(F)(F)C1", "note": "[Compound 110, N-(3,3-Difluorocyclobutyl)-5-fluoro-N-isopropyl-2-((4-(7-(((2S,5R)-5-((1-methylethyl)sulfonamido)tetrahydro-2H-pyran-2-yl)methyl)-2,7-diazaspiro[3.5]nonan-2-yl)pyrimidin-5-yl)oxy)benzamide]", "values": [{"measurement": "EC50", "result": "< 50", "unit": "nM"}, {"measurement": "Ki", "result": "< 1", "unit": "nM"}]}, {"smiles": "CC(C)N(C(=O)c1cc(F)ccc1Oc1cncnc1N1CC2(CCN(C[C@@H]3CC[C@@H](NS(C)(=O)=O)CO3)CC2)C1)C1CC(F)(F)C1", "note": "[Compound 112, N-(3,3-Difluorocyclobutyl)-5-fluoro-N-isopropyl-2-((4-(7-(((2S,5R)-5-(methylsulfonamido)tetrahydro-2H-pyran-2-yl)methyl)-2,7-diazaspiro[3.5]nonan-2-yl)pyrimidin-5-yl)oxy)benzamide]", "values": [{"measurement": "EC50", "result": "< 50", "unit": "nM"}, {"measurement": "Ki", "result": "< 1", "unit": "nM"}]}, {"smiles": "CC(C)N(C(=O)c1cc(F)ccc1Oc1cncnc1N1CC2(CCN(C[C@@H]3CC[C@@H](NS(=O)(=O)C4COC4)CO3)CC2)C1)C1CC(F)(F)C1", "note": "[Compound 115, N-(3,3-Difluorocyclobutyl)-5-fluoro-N-isopropyl-2-((4-(7-(((2S,5R)-5-(oxetane-3-sulfonamido)tetrahydro-2H-pyran-2-yl)methyl)-2,7-diazaspiro[3.5]nonan-2-yl)pyrimidin-5-yl)oxy)benzamide]", "values": [{"measurement": "EC50", "result": "< 50", "unit": "nM"}, {"measurement": "Ki", "result": "< 1", "unit": "nM"}]}, {"smiles": "CC(C)N(C(=O)c1cc(F)ccc1Oc1cncnc1N1CC2(CCN(C[C@@H]3CC[C@@H](NS(=O)(=O)N4CCOCC4)CO3)CC2)C1)C1CC(F)(F)C1", "note": "[Compound 116, N-(3,3-Difluorocyclobutyl)-5-fluoro-N-isopropyl-2-((4-(7-(((2S,5R)-5-(morpholine-4-sulfonamido)tetrahydro-2H-pyran-2-yl)methyl)-2,7-diazaspiro[3.5]nonan-2-yl)pyrimidin-5-yl)oxy)benzamide]", "values": [{"measurement": "EC50", "result": "< 50", "unit": "nM"}, {"measurement": "Ki", "result": "< 1", "unit": "nM"}]}, {"smiles": "CC(C)N(C(=O)c1cc(F)ccc1Oc1cncnc1N1CC2(CCN(C[C@@H]3CC[C@@H](NS(N)(=O)=O)CO3)CC2)C1)C1CC(F)(F)C1", "note": "[Compound 117, N-(3,3-Difluorocyclobutyl)-5-fluoro-N-isopropyl-2-((4-(7-(((2S,5R)-5-(sulfamoylamino)tetrahydro-2H-pyran-2-yl)methyl)-2,7-diazaspiro[3.5]nonan-2-yl)pyrimidin-5-yl)oxy)benzamide]", "values": [{"measurement": "EC50", "result": "< 50", "unit": "nM"}, {"measurement": "Ki", "result": "< 1", "unit": "nM"}]}, {"smiles": "C[C@@H]1COC[C@@H](C)N1C(=O)c1cc(F)ccc1Oc1cncnc1N1CC2(CCN(C[C@@H]3CC[C@@H](NS(=O)(=O)N4CCCC4)CO3)CC2)C1", "note": "[Compound 124, N-((3R,6S)-6-((2-(5-(2-((3R,5R)-3,5-Dimethylmorpholine-4-carbonyl)-4-fluorophenoxy)pyrimidin-4-yl)-2,7-diazaspiro[3.5]nonan-7-yl)methyl)tetrahydro-2H-pyran-3-yl)pyrrolidine-1-sulfonamide]", "values": [{"measurement": "Ki", "result": "< 1", "unit": "nM"}]}, {"smiles": "C[C@@H]1COC[C@@H](C)N1C(=O)c1cc(F)ccc1Oc1cncnc1N1CC2(CCN(C[C@@H]3CC[C@@H](NS(=O)(=O)c4cnn(C)c4)CO3)CC2)C1", "note": "[Compound 126]", "values": [{"measurement": "Ki", "result": "< 1", "unit": "nM"}]}, {"smiles": "C[C@@H]1COC[C@@H](C)N1C(=O)c1cc(F)ccc1Oc1cncnc1N1CC2(CCN(C[C@@H]3CC[C@@H](NS(=O)(=O)c4ccn(C)n4)CO3)CC2)C1", "note": "[Compound 127]", "values": [{"measurement": "Ki", "result": "< 1", "unit": "nM"}]}, {"smiles": "CCN(C)S(=O)(=O)N[C@@H]1CC[C@@H](CN2CCC3(CC2)CN(c2ncncc2Oc2ccc(F)cc2C(=O)N2[C@H](C)COC[C@H]2C)C3)OC1", "note": "[Compound 128, {[(3R,6S)-6-{[2-(5-{2-[(3R,5R)-3,5-Dimethylmorpholine-4-carbonyl]-4-fluorophenoxy}pyrimidin-4-yl)-2,7-diazaspiro[3.5]nonan-7-yl]methyl}oxan-3-yl]sulfamoyl}(ethyl)methylamine]", "values": [{"measurement": "Ki", "result": "< 1", "unit": "nM"}]}, {"smiles": "C[C@@H]1COC[C@@H](C)N1C(=O)c1cc(F)ccc1Oc1cncnc1N1CC2(CCN(C[C@@H]3CC[C@@H](NS(=O)(=O)N(C)C4CC4)CO3)CC2)C1", "note": "[Compound 129, N-{[(3R,6S)-6-{[2-(5-{2-[(3R,5R)-3,5-Dimethylmorpholine-4-carbonyl]-4-fluorophenoxy}pyrimidin-4-yl)-2,7-diazaspiro[3.5]nonan-7-yl]methyl}oxan-3-yl]sulfamoyl}-N-methylcyclopropanamine]", "values": [{"measurement": "Ki", "result": "< 1", "unit": "nM"}]}, {"smiles": "Cc1nc(S(=O)(=O)N[C@@H]2CC[C@@H](CN3CCC4(CC3)CN(c3ncncc3Oc3ccc(F)cc3C(=O)N3[C@H](C)COC[C@@H]3C)C4)OC2)cs1", "note": "[Compound 131, N-((3R,6S)-6-((2-(5-(2-((3S,5R)-3,5-Dimethylmorpholine-4-carbonyl)-4-fluorophenoxy)pyrimidin-4-yl)-2,7-diazaspiro[3.5]nonan-7-yl)methyl)tetrahydro-2H-pyran-3-yl)-2-methylthiazole-4-sulfonamide]", "values": [{"measurement": "Ki", "result": "< 1", "unit": "nM"}]}]}
